The structures appear in SMILES notation. In brackets after ≈: the same amount, converted by molar mass.

The record followed here is ChEMBL document CHEMBL6178021, “Optimization of Tambjamines Active against Multiple Stages of Malaria Parasites” (J Med Chem, 2025).

Data set [1] relates to Plasmodium falciparum. The data set is described as follows: Antiplasmodial activity against asexual blood-stage Plasmodium falciparum Tm90-C2B using 2% haematocrit and 0.2% parasitemia assessed as reduction in fluorescence measured after 72 hrs by Malaria SYBR Green I-based Fluorescence (MSF) assay. The class given is functional, organism-based.
Another data set has as its system HepG2. The data set is described as follows: Cytotoxicity against human HepG2 cells assessed as cell viability measured after 48 hrs by MTT assay. The class given is toxicity, cell-based. Particulars: hepg2.
The nature of data set [2]: Metabolic stability in human liver microsomes assessed as half life measured up to 60 mins by LC/MS analysis. The class given is ADME, Microsome.
Data set [3] in a line: Metabolic stability in mouse liver microsomes assessed as half life measured up to 60 mins by LC/MS analysis. The class given is ADME, Microsome.
Data set [4] deals with Plasmodium yoelii. In words: Antimalarial activity against erythrocytic Plasmodium yoelii MRA-428 infected in CF1 mouse assessed as reduction in parasitemia at 10 mg/kg, po once daily for 4 days measured on day 5. The class given is functional. Details: scale not given: the % may be the effect or the level left. The following applies: time 4 day.
Data set [5] relates to Plasmodium yoelii. The data set is described as follows: Antimalarial activity against erythrocytic Plasmodium yoelii MRA-428 infected in CF1 mouse assessed as reduction in parasitemia at 25 mg/kg, po once daily for 4 days measured on day 5. Details: scale not given: the % may be the effect or the level left. The following applies: time 4 day. The class given is functional.

A short description of data set [6]: Solubility of the compound in potassium phosphate buffer at pH 7.4 by UV-vis spectroscopy. The following applies: buffer.
In data set [7] the test system is MDR1 (human). In words: Apparent permeability across apical to basolateral side in MDCK transfected with human MDR1 cells incubated for 1 hr by LC-MS analysis. The following applies: dog, MDCK-MDR1.
Data set [8] deals with MDR1 (human). In words: Apparent permeability across basolateral to apical side in MDCK transfected with human MDR1 cells incubated for 1 hr by LC-MS analysis. The following applies: dog, MDCK-MDR1.
A short description of data set [9]: in vitro. Particulars: human, liver microsomes.
A short description of data set [10]: in vitro. The following applies: mouse, liver microsomes.
In data set [11] the test system is Plasmodium falciparum. The data set is described as follows: microbe, parasite or virus in culture. Particulars: D6, 72 h.
Description: Antiplasmodial activity against asexual blood-stage Plasmodium falciparum D6 using 2% haematocrit and 0.2% parasitemia assessed as reduction in fluorescence measured after 72 hrs by Malaria SYBR Green I-based Fluorescence (MSF) assay
Data set [12] deals with Plasmodium falciparum. The data set is described as follows: microbe, parasite or virus in culture. Particulars: Dd2, 72 h.
Description: Antiplasmodial activity against asexual blood-stage Plasmodium falciparum Dd2 using 2% haematocrit and 0.2% parasitemia assessed as reduction in fluorescence measured after 72 hrs by Malaria SYBR Green I-based Fluorescence (MSF) assay

With `C(/NC1CCCCC1)=C1/N=C(c2ccc[nH]2)C2=C1OCCO2`, the IC50 in the data set with Plasmodium falciparum [1] amounted to 43.9 nM; in the data set on HepG2 it was 9080 nM; with Plasmodium falciparum [11] it was 48.5 nM; in the data set on Plasmodium falciparum [12], 53.5 nM. Also, the half-life in [2] came to 13.1 min; in data set [3], 16.1 min. The Activity is listed as 7.6% in the data set with Plasmodium yoelii [4] and 26.7% in the data set on Plasmodium yoelii [5]. The same compound displayed a solubility in data set [6] of 231 µM (≈ 69.2 µg/mL). In addition, the Papp A→B at 1 h in the data set with MDR1 (human) [7] came out at 0.33 ×10⁻⁶ cm/s. Further, the Papp B→A at 1 h with MDR1 (human) [8] amounted to 4.4 ×10⁻⁶ cm/s. Also, the figures for the microsomal CLint at 1 h in “in vitro [9]” and in “in vitro [10]” were 105 µL/min/mg and 86.4 µL/min/mg, respectively.
For `CCc1ccc(C2=N/C(=C\NC3CCCCC3)C(OC)=C2OC)[nH]1`, the IC50 in the data set on Plasmodium falciparum [1] is 3.96 nM; in the data set on HepG2, 11400 nM; in the data set with Plasmodium falciparum [11], 10.3 nM; in the data set with Plasmodium falciparum [12], 15.5 nM. The half-life in data set [2] is more than 60 min; in [3], 26.2 min. Besides, the results for the Activity with Plasmodium yoelii [4] and in the data set with Plasmodium yoelii [5] were 12.3% and 12.1%, respectively. Further, the solubility in data set [6] came out at 99.6 µM (≈ 32.8 µg/mL). Also, in the data set with MDR1 (human) [7], the Papp A→B at 1 h is 0.21 ×10⁻⁶ cm/s. Also, in the data set on MDR1 (human) [8], the Papp B→A at 1 h came out at 0.49 ×10⁻⁶ cm/s. In addition, the results for the microsomal CLint at 1 h in “in vitro [9]” and in the data set “in vitro [10]” were 16.8 µL/min/mg and 52.8 µL/min/mg, respectively.
As for `COc1ccc(Cc2ccc(C3=N/C(=C\NC4CCCCC4)C4=C3CCCC4)[nH]2)cc1`, the half-inhibitory concentration (IC50) in the data set on Plasmodium falciparum [1] stood at 5.92 nM; with HepG2 it was 2020 nM; in the data set with Plasmodium falciparum [11] it was 9.68 nM; with Plasmodium falciparum [12], 12.2 nM. The half-life in data set [2] and in [3] was more than 60 min in each case. The Activity in the data set on Plasmodium yoelii [4] and in the data set on Plasmodium yoelii [5] was 0% in each case. For the same compound, in data set [6], the solubility was found to be 25.5 µM (≈ 10.6 µg/mL). In addition, the microsomal CLint at 1 h in the data set “in vitro [9]” stood at 11.2 µL/min/mg; in the data set “in vitro [10]” it was 9.87 µL/min/mg.
Consider `COc1ccc(Cc2ccc(C3=N/C(=C\NC4CCCCC4)C4=C3OCCO4)[nH]2)cc1`, for which the IC50 came to 9.6 nM in the data set on Plasmodium falciparum [1], 1550 nM in the data set with HepG2, 6.08 nM in the data set with Plasmodium falciparum [11] and 12.6 nM in the data set with Plasmodium falciparum [12]. Moreover, the half-life in [2] and in [3] was more than 60 min throughout. Further, the figures for the Activity with Plasmodium yoelii [4] and in the data set with Plasmodium yoelii [5] were 5.01% and 31.2%, respectively. In data set [6], this compound showed a solubility of 16.4 µM (≈ 6.88 µg/mL). In addition, the Papp A→B at 1 h in the data set on MDR1 (human) [7] is 0.002 ×10⁻⁶ cm/s. Further, the Papp B→A at 1 h in the data set on MDR1 (human) [8] amounted to 0.051 ×10⁻⁶ cm/s. Moreover, the microsomal CLint at 1 h worked out at 18.1 µL/min/mg in “in vitro [9]” and 16.2 µL/min/mg in “in vitro [10]”.
`C(/NC1CCCCCC1)=C1/N=C(c2ccc[nH]2)C2=C1OCCO2`: the IC50 is 12.6 nM in the data set on Plasmodium falciparum [1], 7680 nM with HepG2 and 25.7 nM in the data set on Plasmodium falciparum [12]. Moreover, the half-life stood at 14.9 min in data set [2] and 19.5 min in data set [3]. Besides, the Activity with Plasmodium yoelii [4] is 0%; with Plasmodium yoelii [5], 31.2%. The solubility in data set [6] stood at 183 µM (≈ 57.4 µg/mL). Besides, in the data set with MDR1 (human) [7], the Papp A→B at 1 h was found to be 1.7 ×10⁻⁶ cm/s. Moreover, the Papp B→A at 1 h in the data set with MDR1 (human) [8] stood at 2.9 ×10⁻⁶ cm/s. The microsomal CLint at 1 h in the data set “in vitro [9]” was 92.8 µL/min/mg; in “in vitro [10]”, 79.8 µL/min/mg.
As for `CCC1=C(CC)/C(=C/NC2CCCCC2)N=C1c1ccc(-c2ccc(OC)cc2)[nH]1`, the IC50 stood at 18 nM in the data set with Plasmodium falciparum [1], 6570 nM with HepG2, 33.8 nM with Plasmodium falciparum [11] and 41.1 nM in the data set on Plasmodium falciparum [12]. For the same compound, the half-life in data set [2] and in data set [3] was more than 60 min in each case. Besides, the Activity in the data set on Plasmodium yoelii [4] came to 18.5%. In data set [6], this compound gave a solubility of less than 3.125 µM. In addition, the Papp A→B at 1 h with MDR1 (human) [7] worked out at 0.01 ×10⁻⁶ cm/s. Besides, the Papp B→A at 1 h in the data set on MDR1 (human) [8] stood at 0.003 ×10⁻⁶ cm/s. For the same compound, the microsomal CLint at 1 h in the data set “in vitro [9]” is 4.54 µL/min/mg; in “in vitro [10]” it was 21.8 µL/min/mg.
Consider `CCC1=C(CC)/C(=C/NC2CCCCC2)N=C1c1ccc(-c2ccccc2)[nH]1`, for which the IC50 in the data set with Plasmodium falciparum [1] came out at 13.8 nM; in the data set with HepG2, 4730 nM; in the data set with Plasmodium falciparum [11] it was 24.8 nM; in the data set with Plasmodium falciparum [12], 27.5 nM. Besides, the half-life in data set [2] and in [3] was more than 60 min in each case. In addition, the Activity in the data set with Plasmodium yoelii [4] worked out at 0%. In data set [6], this compound yielded a solubility of less than 3.125 µM. Besides, the Papp A→B at 1 h in the data set with MDR1 (human) [7] amounted to 0.012 ×10⁻⁶ cm/s. For the same compound, the Papp B→A at 1 h in the data set on MDR1 (human) [8] was 0.003 ×10⁻⁶ cm/s. Also, the results for the microsomal CLint at 1 h in “in vitro [9]” and in the data set “in vitro [10]” were 15.9 µL/min/mg and 17.6 µL/min/mg, respectively.
For the compound `CCC1=C(CC)/C(=C/NC2CCCCCC2)N=C1c1ccc(-c2ccccc2)[nH]1`, the IC50 in the data set on Plasmodium falciparum [1] worked out at 19.8 nM; with HepG2, 5640 nM; with Plasmodium falciparum [12], 30.2 nM. Also, the half-life is 22.5 min in data set [2] and 12.1 min in [3]. For the same compound, the Activity in the data set with Plasmodium yoelii [4] worked out at 10.5%. The solubility in data set [6] is 13.1 µM (≈ 5.08 µg/mL). Besides, the Papp B→A at 1 h with MDR1 (human) [8] came to 0.002 ×10⁻⁶ cm/s. Moreover, the microsomal CLint at 1 h stood at 61.5 µL/min/mg in the data set “in vitro [9]” and 115 µL/min/mg in “in vitro [10]”.
